Active and inactive are the calls of the source. How the calls were made is not given here.
System: rodent lifetime carcinogenesis bioassay, tumor incidence TD50
Test: carcinogenic potency in animals, long-term in vivo studies, CPDB compilation (AID 1745844)

ClCc1ccccc1
TD50 (mouse, strain B6C3F1, females, by gavage, site: forestomach, lesion: carcinoma, dosed 104 weeks, study length 107 weeks): 445 mg/kg/day
TD50 (mouse, strain B6C3F1, females, by gavage, site: forestomach, lesion: several types, types named in the paper, dosed 104 weeks, study length 107 weeks): 81 mg/kg/day
TD50 (mouse, strain B6C3F1, females, by gavage, site: lung, lesion: several types, types named in the paper, dosed 104 weeks, study length 107 weeks): 337 mg/kg/day
TD50 (mouse, strain B6C3F1, males, by gavage, site: all sites, lesion: all vascular tumors, dosed 104 weeks, study length 107 weeks): 454 mg/kg/day
TD50 (mouse, strain B6C3F1, males, by gavage, site: forestomach, lesion: carcinoma, dosed 104 weeks, study length 107 weeks): 221 mg/kg/day
TD50 (mouse, strain B6C3F1, males, by gavage, site: forestomach, lesion: several types, types named in the paper, dosed 104 weeks, study length 107 weeks): 49.6 mg/kg/day
TD50 (mouse, strain B6C3F1, males, by gavage, site: liver, lesion: several types, types named in the paper, dosed 104 weeks, study length 107 weeks): 225 mg/kg/day
TD50 (rat, strain Fischer 344, females, by gavage, site: liver, lesion: neoplastic nodule, dosed 104 weeks, study length 107 weeks): 330 mg/kg/day
TD50 (rat, strain Fischer 344, females, by gavage, site: thyroid gland, lesion: several types, types named in the paper, dosed 104 weeks, study length 107 weeks): 40.6 mg/kg/day

N=C1C=CC(=C(c2ccc(N)cc2)c2ccc(N)cc2)C=C1
carcinogen call (hamster, strain Syrian Golden, females, by gavage, site: any site (literature study), lesion: several types, types named in the paper, dosed 84 weeks, study length 84 weeks): negative (inactive)
carcinogen call (hamster, strain Syrian Golden, males, by gavage, site: any site (literature study), lesion: several types, types named in the paper, dosed 84 weeks, study length 84 weeks): negative (inactive)
TD50 (mouse, strain B6C3F1, females, in feed, site: Harderian gland, lesion: adenoma, NOS + carcinoma, NOS + cystadenoma, NOS, dosed 103 weeks, study length 105 weeks): 388 mg/kg/day
TD50 (mouse, strain B6C3F1, females, in feed, site: Harderian gland, lesion: adenoma, NOS + cystadenoma, NOS, dosed 103 weeks, study length 105 weeks): 316 mg/kg/day
TD50 (mouse, strain B6C3F1, females, in feed, site: Harderian gland, lesion: adenoma, dosed 103 weeks, study length 105 weeks): 548 mg/kg/day
TD50 (mouse, strain B6C3F1, females, in feed, site: adrenal gland + liver, lesion: pheochromocytoma + pheochromocytoma, malignant + hepatocellular carcinoma, dosed 103 weeks, study length 105 weeks): 28.8 mg/kg/day
TD50 (mouse, strain B6C3F1, females, in feed, site: adrenal gland, lesion: pheochromocytoma + pheochromocytoma, malignant, dosed 103 weeks, study length 105 weeks): 90.6 mg/kg/day
TD50 (mouse, strain B6C3F1, females, in feed, site: all sites, lesion: malignant lymphoma, histiocytic type + malignant lymphoma, mixed type + malignant lymphoma, lymphocytic type + malignant lymph, dosed 103 weeks, study length 105 weeks): 62.2 mg/kg/day
TD50 (mouse, strain B6C3F1, females, in feed, site: all sites, lesion: malignant lymphoma, histiocytic type, dosed 103 weeks, study length 105 weeks): 380 mg/kg/day
TD50 (mouse, strain B6C3F1, females, in feed, site: all sites, lesion: malignant lymphoma, lymphocytic type, dosed 103 weeks, study length 105 weeks): 151 mg/kg/day
TD50 (mouse, strain B6C3F1, females, in feed, site: any site (literature study), lesion: several types, types named in the paper, dosed 103 weeks, study length 105 weeks): 23.4 mg/kg/day
TD50 (mouse, strain B6C3F1, females, in feed, site: liver, lesion: hepatocellular adenoma + hepatocellular carcinoma + neoplastic nodule, dosed 103 weeks, study length 105 weeks): 20.3 mg/kg/day
TD50 (mouse, strain B6C3F1, females, in feed, site: liver, lesion: hepatocellular adenoma + hepatocellular carcinoma, dosed 103 weeks, study length 105 weeks): 20.3 mg/kg/day
TD50 (mouse, strain B6C3F1, females, in feed, site: liver, lesion: hepatocellular adenoma, dosed 103 weeks, study length 105 weeks): 35.9 mg/kg/day
TD50 (mouse, strain B6C3F1, females, in feed, site: liver, lesion: hepatocellular carcinoma, dosed 103 weeks, study length 105 weeks): 32.3 mg/kg/day
TD50 (mouse, strain B6C3F1, females, in feed, site: lung, lesion: alveolar/bronchiolar adenoma + alveolar/bronchiolar carcinoma, dosed 103 weeks, study length 105 weeks): 302 mg/kg/day
TD50 (mouse, strain B6C3F1, females, in feed, site: lung, lesion: alveolar/bronchiolar adenoma, dosed 103 weeks, study length 105 weeks): 326 mg/kg/day
TD50 (mouse, strain B6C3F1, males, in feed, site: all sites, lesion: malignant lymphoma, mixed type, dosed 103 weeks, study length 104 weeks): 610 mg/kg/day
TD50 (mouse, strain B6C3F1, males, in feed, site: any site (literature study), lesion: several types, types named in the paper, dosed 103 weeks, study length 104 weeks): 222 mg/kg/day
TD50 (mouse, strain B6C3F1, males, in feed, site: liver, lesion: hepatocellular adenoma + hepatocellular carcinoma + neoplastic nodule, dosed 103 weeks, study length 104 weeks): 116 mg/kg/day
TD50 (mouse, strain B6C3F1, males, in feed, site: liver, lesion: hepatocellular adenoma + hepatocellular carcinoma, dosed 103 weeks, study length 104 weeks): 116 mg/kg/day
TD50 (mouse, strain B6C3F1, males, in feed, site: liver, lesion: hepatocellular carcinoma, dosed 103 weeks, study length 104 weeks): 127 mg/kg/day
TD50 (rat, strain Fischer 344, females, in feed, site: Zymbal's gland, lesion: carcinoma, NOS, dosed 103 weeks, study length 104 weeks): 190 mg/kg/day
TD50 (rat, strain Fischer 344, females, in feed, site: any site (literature study), lesion: several types, types named in the paper, dosed 103 weeks, study length 104 weeks): 17.8 mg/kg/day
TD50 (rat, strain Fischer 344, females, in feed, site: liver, lesion: hepatocellular adenoma + hepatocellular carcinoma + neoplastic nodule, dosed 103 weeks, study length 104 weeks): 189 mg/kg/day
TD50 (rat, strain Fischer 344, females, in feed, site: liver, lesion: hepatocellular carcinoma + neoplastic nodule, dosed 103 weeks, study length 104 weeks): 189 mg/kg/day
TD50 (rat, strain Fischer 344, females, in feed, site: mammary gland, lesion: adenocarcinoma, NOS + adenoma, NOS + fibroadenoma, dosed 103 weeks, study length 104 weeks): 25.4 mg/kg/day
TD50 (rat, strain Fischer 344, females, in feed, site: mammary gland, lesion: adenocarcinoma, NOS + adenoma, NOS, dosed 103 weeks, study length 104 weeks): 156 mg/kg/day
TD50 (rat, strain Fischer 344, females, in feed, site: mammary gland, lesion: adenocarcinoma, NOS, dosed 103 weeks, study length 104 weeks): 232 mg/kg/day
TD50 (rat, strain Fischer 344, females, in feed, site: mammary gland, lesion: fibroadenoma, dosed 103 weeks, study length 104 weeks): 27.9 mg/kg/day
TD50 (rat, strain Fischer 344, females, in feed, site: subcutaneous tissue + thyroid gland + Zymbal's gland, lesion: fibroma + follicular-cell adenoma + follicular-cell carcinoma + carcinoma, NOS, dosed 103 weeks, study length 104 weeks): 32.2 mg/kg/day
TD50 (rat, strain Fischer 344, females, in feed, site: subcutaneous tissue, lesion: fibroma, dosed 103 weeks, study length 104 weeks): 44.5 mg/kg/day
TD50 (rat, strain Fischer 344, females, in feed, site: subcutaneous tissue, lesion: fibrosarcoma + fibroma + sarcoma, NOS, dosed 103 weeks, study length 104 weeks): 40.9 mg/kg/day
TD50 (rat, strain Fischer 344, females, in feed, site: subcutaneous tissue, lesion: fibrosarcoma + fibroma, dosed 103 weeks, study length 104 weeks): 42.8 mg/kg/day
TD50 (rat, strain Fischer 344, females, in feed, site: thyroid gland, lesion: follicular-cell adenoma + follicular-cell carcinoma, dosed 103 weeks, study length 104 weeks): 154 mg/kg/day
TD50 (rat, strain Fischer 344, females, in feed, site: thyroid gland, lesion: follicular-cell adenoma, dosed 103 weeks, study length 104 weeks): 318 mg/kg/day
TD50 (rat, strain Fischer 344, females, in feed, site: uterus, lesion: endometrial stromal sarcoma, dosed 103 weeks, study length 104 weeks): 133 mg/kg/day
TD50 (rat, strain Fischer 344, males, in feed, site: Zymbal's gland, lesion: carcinoma, NOS, dosed 103 weeks, study length 104 weeks): 124 mg/kg/day
TD50 (rat, strain Fischer 344, males, in feed, site: any site (literature study), lesion: several types, types named in the paper, dosed 103 weeks, study length 104 weeks): 15.7 mg/kg/day
TD50 (rat, strain Fischer 344, males, in feed, site: body cavities + multiple sites + multiple organs + tunica vaginalis, lesion: mesothelioma, NOS + mesothelioma, malignant, dosed 103 weeks, study length 104 weeks): 184 mg/kg/day
TD50 (rat, strain Fischer 344, males, in feed, site: liver + skin + subcutaneous tissue + thyroid gland + Zymbal's gland, lesion: hepatocellular carcinoma + sebaceous adenoma + squamous-cell carcinoma + trichoepithelioma + fibroma + follicular-cell adenoma + fol, dosed 103 weeks, study length 104 weeks): 21.2 mg/kg/day
TD50 (rat, strain Fischer 344, males, in feed, site: liver, lesion: bile duct adenoma + bile duct carcinoma, dosed 103 weeks, study length 104 weeks): 557 mg/kg/day
TD50 (rat, strain Fischer 344, males, in feed, site: liver, lesion: hepatocellular adenoma + hepatocellular carcinoma + neoplastic nodule, dosed 103 weeks, study length 104 weeks): 41.5 mg/kg/day
TD50 (rat, strain Fischer 344, males, in feed, site: liver, lesion: hepatocellular carcinoma + neoplastic nodule, dosed 103 weeks, study length 104 weeks): 41.5 mg/kg/day
TD50 (rat, strain Fischer 344, males, in feed, site: liver, lesion: hepatocellular carcinoma, dosed 103 weeks, study length 104 weeks): 140 mg/kg/day
TD50 (rat, strain Fischer 344, males, in feed, site: liver, lesion: neoplastic nodule, dosed 103 weeks, study length 104 weeks): 62.2 mg/kg/day
TD50 (rat, strain Fischer 344, males, in feed, site: lung, lesion: alveolar/bronchiolar adenoma + alveolar/bronchiolar carcinoma, dosed 103 weeks, study length 104 weeks): 254 mg/kg/day
TD50 (rat, strain Fischer 344, males, in feed, site: lung, lesion: alveolar/bronchiolar adenoma, dosed 103 weeks, study length 104 weeks): 281 mg/kg/day
TD50 (rat, strain Fischer 344, males, in feed, site: pancreatic islets, lesion: islet-cell adenoma + islet-cell carcinoma, dosed 103 weeks, study length 104 weeks): 152 mg/kg/day
TD50 (rat, strain Fischer 344, males, in feed, site: pancreatic islets, lesion: islet-cell carcinoma, dosed 103 weeks, study length 104 weeks): 252 mg/kg/day
TD50 (rat, strain Fischer 344, males, in feed, site: skin, lesion: basal-cell carcinoma, dosed 103 weeks, study length 104 weeks): 385 mg/kg/day
TD50 (rat, strain Fischer 344, males, in feed, site: skin, lesion: sebaceous adenoma, dosed 103 weeks, study length 104 weeks): 424 mg/kg/day
TD50 (rat, strain Fischer 344, males, in feed, site: skin, lesion: squamous-cell carcinoma + squamous-cell papilloma, dosed 103 weeks, study length 104 weeks): 93.8 mg/kg/day
TD50 (rat, strain Fischer 344, males, in feed, site: skin, lesion: squamous-cell carcinoma, dosed 103 weeks, study length 104 weeks): 130 mg/kg/day
TD50 (rat, strain Fischer 344, males, in feed, site: skin, lesion: trichoepithelioma, dosed 103 weeks, study length 104 weeks): 221 mg/kg/day
TD50 (rat, strain Fischer 344, males, in feed, site: subcutaneous tissue, lesion: fibroma, dosed 103 weeks, study length 104 weeks): 35.3 mg/kg/day
TD50 (rat, strain Fischer 344, males, in feed, site: subcutaneous tissue, lesion: fibrosarcoma + fibroma + sarcoma, NOS, dosed 103 weeks, study length 104 weeks): 33.4 mg/kg/day
TD50 (rat, strain Fischer 344, males, in feed, site: subcutaneous tissue, lesion: fibrosarcoma + fibroma, dosed 103 weeks, study length 104 weeks): 33 mg/kg/day
TD50 (rat, strain Fischer 344, males, in feed, site: testis, lesion: interstitial-cell tumor, dosed 103 weeks, study length 104 weeks): 15.6 mg/kg/day
TD50 (rat, strain Fischer 344, males, in feed, site: thyroid gland, lesion: follicular-cell adenoma + follicular-cell carcinoma, dosed 103 weeks, study length 104 weeks): 57 mg/kg/day
TD50 (rat, strain Fischer 344, males, in feed, site: thyroid gland, lesion: follicular-cell adenoma, dosed 103 weeks, study length 104 weeks): 176 mg/kg/day
TD50 (rat, strain Fischer 344, males, in feed, site: thyroid gland, lesion: follicular-cell carcinoma, dosed 103 weeks, study length 104 weeks): 73.9 mg/kg/day
carcinogen call (rat, strain Sprague-Dawley, females, by gavage, site: any site (literature study), lesion: several types, types named in the paper, dosed 127 weeks, study length 127 weeks): negative (inactive)
carcinogen call (rat, strain Sprague-Dawley, males, by gavage, site: any site (literature study), lesion: several types, types named in the paper, dosed 124 weeks, study length 124 weeks): negative (inactive)

CN(N=O)C(=O)NCCC[C@H](N)C(=O)O
TD50 (rat, strain Wistar albino, females, i.p., site: kidney, lesion: epithelial neoplasm, dosed 26 weeks, study length 52 weeks): 0.633 mg/kg/day
TD50 (rat, strain Wistar albino, females, i.p., site: kidney, lesion: mesenchymal neoplasm, dosed 26 weeks, study length 52 weeks): 0.633 mg/kg/day
carcinogen call (rat, strain Wistar albino, females, i.p., site: mammary tissue, wider than the gland, lesion: several types, types named in the paper, dosed 26 weeks, study length 52 weeks): positive
TD50 (rat, strain Wistar albino, females, i.p., site: pancreas, lesion: adenocarcinoma in adenomatous polyp, dosed 26 weeks, study length 52 weeks): 11 mg/kg/day
TD50 (rat, strain Wistar albino, females, i.p., site: skin, lesion: neoplasm, dosed 26 weeks, study length 52 weeks): 1.42 mg/kg/day
TD50 (rat, strain Wistar albino, males, i.p., site: Zymbal's gland, lesion: carcinoma, dosed 26 weeks, study length 52 weeks): 11.8 mg/kg/day
TD50 (rat, strain Wistar albino, males, i.p., site: kidney, lesion: epithelial neoplasm, dosed 26 weeks, study length 52 weeks): 1.04 mg/kg/day
TD50 (rat, strain Wistar albino, males, i.p., site: kidney, lesion: mesenchymal neoplasm, dosed 26 weeks, study length 52 weeks): 1.57 mg/kg/day
TD50 (rat, strain Wistar albino, males, i.p., site: pancreas, lesion: adenocarcinoma, dosed 26 weeks, study length 52 weeks): 11 mg/kg/day
TD50 (rat, strain Wistar albino, males, i.p., site: pancreas, lesion: several types, types named in the paper, dosed 26 weeks, study length 52 weeks): 5.25 mg/kg/day
TD50 (rat, strain Wistar albino, males, i.p., site: skin, lesion: neoplasm, dosed 26 weeks, study length 52 weeks): 1.04 mg/kg/day

Source: PubChem BioAssay AID1745844 (Carcinogenic Potency Database (CPDB), 2022)
